Like-named read-outs stand apart in the source and are kept apart here.

The values that follow come from US11173184B2 (priority 2016, dated 2021).

Test [1] deals with male Ross 308 broilers with induced Necrotic Enteritis challenge (E. maxima, Clostridium perfringens). The class given is in vivo, broiler chickens.
Test [2] relates to Clostridium perfringens. The class given is in vivo.
Test [3] has as its system male Ross 308 broilers with induced Necrotic Enteritis challenge. Further details: species or system broiler chickens. The following applies: in vivo.
The subject of test [4] is Bacillus spp. The experiment in a line: Molecular enumeration (quantitative PCR) in digesta. It counts as in vivo.
The subject of test [5] is male Ross 308 broilers. The class given is in vivo, broiler chickens. The following applies: 1-42 d.
Test [6] has as its system Vencobb 400 broilers. The class given is in vivo, broiler chickens.
The mark [7] stands for this setting: 1-35 days, necrotic enteritis challenge.

As for `CC[C@@H](C(=O)O)[C@@H]1O[C@@H]([C@@H](C)[C@H](O)[C@H](C)C(=O)[C@H](CC)[C@H]2O[C@]3(C=C[C@@H](O)[C@]4(CC[C@@](C)([C@H]5CC[C@](O)(CC)[C@H](C)O5)O4)O3)[C@H](C)C[C@@H]2C)[C@@H](C)C[C@@H]1C` [Narasin], the “BW, average bird body weight” value in test [1] (setting [7]) amounted to 2778.4 g. The “FCR, feed conversion ratio (feed to gain)” value in test [1] (setting [7]) was found to be 1.431 g/g. For the same compound, the “aFCR, feed conversion ratio adjusted for mortalities” value in test [1] (setting [7]) stood at 1.425 g/g. Moreover, the “Mortality as a percentage of the pen population” value in test [1] (day 11-35, necrotic enteritis challenge) is on record as 1.3%. Besides, the C. perfringens was 6.38 Log^10 of gene copies/g in test [2] (Day 11 Cecum); 4.18 Log^10 of gene copies/g in test [2] (Day 11 Ileum); 4.87 Log^10 of gene copies/g in test [2] (Day 18 Cecum); 4.60 Log^10 of gene copies/g in test [2] (Day 18 Ileum); 4.81 Log^10 of gene copies/g in test [2] (Day 35 Cecum); 4.03 Log^10 of gene copies/g in test [2] (Day 35 Ileum). Moreover, the “Footpad Lesion Score (0-4)” value in test [3] is 0.41. Also, the Bacillus spp. in test [4] (Day 11 Cecum) is 5.24 Log^10 of gene copies/g; in test [4] (Day 11 Ileum), 5.68 Log^10 of gene copies/g; in test [4] (Day 18 Cecum), 4.54 Log^10 of gene copies/g; in test [4] (Day 18 Ileum) it was 4.94 Log^10 of gene copies/g; in test [4] (Day 35 Cecum), 5.23 Log^10 of gene copies/g; in test [4] (Day 35 Ileum), 4.84 Log^10 of gene copies/g.
For Zinc Bacitracin [ZnB], in test [5], the “BW, average bird body weight” value was found to be 2988.0 g; the “FCR, feed conversion ratio adjusted for mortalities” value was found to be 1.78 g/g; the Mortality came to 1.67%.
With “Bacitracin Methylene Disalicyclate [BMD]”, the results for the “BW, average bird body weight” value in test [6] (1-21 d) and in test [6] (1-42 d) were 649.4 g and 2321.4 g, respectively. Moreover, the results for the “FCR, feed conversion ratio (feed to gain)” value in test [6] (1-21 d) and in test [6] (1-42 d) were 1.45 g/g and 1.74 g/g, respectively.
